From PubChem BioAssay (NCI)
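Following 48 hours of exposure in 96-well plates, responses at five concentrations were used to interpolate endpoints linearly. Here, GI50 denotes the concentration required for 50% inhibition of growth. TGI marks complete inhibition of growth.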

Columns and labels:
Assay in all cases: NCI tumour cell line growth inhibition, 48 h; in the data active means GI50 below about 0.43 µM; inactive means the rest
[1] = test system: 786-0 renal
[2] = test system: A549 NSCLC
[3] = test system: ACHN renal
[4] = test system: CAKI-1 renal
[5] = test system: CCRF-CEM leukemia
[6] = test system: COLO 205 colon
[7] = test system: DLD-1 colon
[8] = test system: DMS 114 small cell lung
[9] = test system: EKVX NSCLC
[10] = test system: HCC-2998 colon
[11] = test system: HCT-116 colon
[12] = test system: HCT-15 colon
[13] = test system: HL-60(TB) leukemia
[14] = test system: HOP-18 NSCLC
[15] = test system: HOP-62 NSCLC
[16] = test system: HT29 colon
[17] = test system: IGROV1 ovarian
[18] = test system: K-562 leukemia
[19] = test system: KM12 colon
[20] = test system: KM20L2 colon
[21] = test system: LOX IMVI melanoma
[22] = test system: LXFL 529 NSCLC
[23] = test system: M14 melanoma
[24] = test system: M19-MEL melanoma
[25] = test system: MALME-3M melanoma
[26] = test system: MOLT-4 leukemia
[27] = test system: NCI-H226 lung
[28] = test system: NCI-H23 lung
[29] = test system: NCI-H460 lung
[30] = test system: NCI-H522 lung
[31] = test system: OVCAR-3 ovarian
[32] = test system: OVCAR-4 ovarian
[33] = test system: OVCAR-5 ovarian
[34] = test system: OVCAR-8 ovarian
[35] = test system: RPMI-8226 leukemia
[36] = test system: RXF-631 renal
[37] = test system: SF-268 CNS
[38] = test system: SF-295 CNS
[39] = test system: SF-539 CNS
[40] = test system: SK-MEL-2 melanoma
[41] = test system: SK-MEL-28 melanoma
[42] = test system: SK-MEL-5 melanoma
[43] = test system: SK-OV-3 ovarian
[44] = test system: SNB-19 CNS
[45] = test system: SNB-75 CNS
[46] = test system: SNB-78 CNS
[47] = test system: SR leukemia
[48] = test system: SW-620 colon
[49] = test system: TK-10 renal
[50] = test system: U251 CNS
[51] = test system: UACC-257 melanoma
[52] = test system: UACC-62 melanoma
[53] = test system: UO-31 renal
[54] = test system: XF 498 CNS

CC[O-].CC[O-].CN(C)c1ccc([O-])cc1.CN(C)c1ccc([O-])cc1.[Ti+4]
> 100 µM: TGI [1] | TGI [2] | TGI [3] | TGI [4] | TGI [5] | TGI [6] | TGI [7] | TGI [8] | TGI [9] | TGI [10] | TGI [11] | TGI [12] | TGI [13] | TGI [14] | TGI [15] | TGI [17] | TGI [18] | TGI [19] | TGI [20] | TGI [21] | TGI [22] | TGI [23] | TGI [24] | TGI [25] | TGI [26] | TGI [27] | TGI [28] | TGI [30] | TGI [31] | TGI [32] | TGI [33] | TGI [34] | TGI [35] | TGI [36] | TGI [37] | TGI [38] | TGI [39] | TGI [40] | TGI [41] | TGI [42] | TGI [43] | TGI [44] | TGI [45] | TGI [46] | TGI [47] | TGI [48] | TGI [49] | TGI [50] | TGI [51] | TGI [52] | TGI [53] | TGI [54]
49.5 µM: TGI [16]
75 µM: TGI [29]
inactive: GI50 [1] 32 µM | GI50 [2] 54.4 µM | GI50 [3] 40.9 µM | GI50 [4] > 100 µM | GI50 [5] 36.4 µM | GI50 [6] 58.4 µM | GI50 [7] 61.4 µM | GI50 [8] 35 µM | GI50 [9] > 100 µM | GI50 [10] 53.6 µM | GI50 [11] 52.5 µM | GI50 [12] 61.4 µM | GI50 [13] 46.4 µM | GI50 [14] > 100 µM | GI50 [15] > 100 µM | GI50 [16] 21.3 µM | GI50 [17] > 100 µM | GI50 [18] 29.1 µM | GI50 [19] 29.3 µM | GI50 [20] 61.7 µM | GI50 [21] 38.6 µM | GI50 [22] 68.2 µM | GI50 [23] 98.4 µM | GI50 [24] 39.3 µM | GI50 [25] 82.9 µM | GI50 [26] 32.4 µM | GI50 [27] > 100 µM | GI50 [28] 70.6 µM | GI50 [29] 27.7 µM | GI50 [30] 52.3 µM | GI50 [31] 56.1 µM | GI50 [32] > 100 µM | GI50 [33] > 100 µM | GI50 [34] 36.8 µM | GI50 [35] 95.7 µM | GI50 [36] 66.1 µM | GI50 [37] 36.4 µM | GI50 [38] 48.7 µM | GI50 [39] 30.8 µM | GI50 [40] > 100 µM | GI50 [41] > 100 µM | GI50 [42] 99.8 µM | GI50 [43] > 100 µM | GI50 [44] > 100 µM | GI50 [45] > 100 µM | GI50 [46] > 100 µM | GI50 [47] 72.2 µM | GI50 [48] 70.5 µM | GI50 [49] > 100 µM | GI50 [50] 39 µM | GI50 [51] 28.7 µM | GI50 [52] > 100 µM | GI50 [53] > 100 µM | GI50 [54] > 100 µM
